In patent USRE39300E1, “Inhibiting the development of tolerance to and/or dependence on an addictive substance” (Virginia Commonwealth University Medical College of Virginia, priority 1993, dated 2006):

Legend:
Sprague-Dawley rats [1] = experiment: Development of morphine tolerance with systemic treatment, tail-flick test; type: in vivo, rat; conditions: for inhibition of the development of morphine tolerance: FIG. 6
rats [2] = experiment: Health observations (death, grooming, weight loss) during the morphine tolerance experiment; conditions: for overall toxicity: conclusion of Example 4; for rats that died due to drug administration: GM1 or dextrorphan treatment groups; for grooming and weight: ganglioside GM1 or dextrorphan treatment groups
rats [3] = experiment: Development of morphine tolerance with intrathecal treatment, tail-flick test; type: in vivo, rat; conditions: for analgesic effect of morphine (tail-flick latency) on day 8: 100 or 50 nmol intrathecal immediately before each morphine 10 μg; for dose relation of the prevention of morphine tolerance: intrathecal; for prevention of the development of morphine tolerance: intrathecal administration immediately before each once daily intrathecal morphine sulfate 10 μg, FIGS. 7-10
Procedure: Morphine sulfate 10 μg was delivered once daily through an intrathecal (spinal) canula implanted 5 days before the first morphine injection. Ganglioside GM1 or saline also was delivered intrathecally 30 minutes before each morphine injection.
Intrathecal ganglioside GM1 was given 30 min before each morphine administration. […] Vertical bars are standard errors. Maximal possible effects (MPE) were calculated by the formula % MPE=[(TL−BL)/(10−BL)]×100. TL: actual tail-flick latency; BL: baseline latency obtained before the first morphine injection; 10: cut-off time for radiant heat stimulation.
Calmodulin is an intracellular colactor necessary for the nitric oxide pathway that can be initiated upon NMDA receptor activation. […] Each data point in FIGS. 7-10 represents the mean of a group of rats (n=6) and standard errors are shown by vertical lines. The asterisks refer to statistical differences (α=0.05) between the saline group and each other group.

Sprague-Dawley rats [4] = experiment: Naloxone-produced jumping (withdrawal symptom) in morphine-treated rats; type: in vivo, rat

C[C@]12N[C@H](Cc3ccccc31)c1ccccc12 [MK 801, 5-methyl-10,11-dihydro-SH-dibenzo[a,d]cyclohepten-5,10-imine]
inhibition of the development of morphine tolerance (Sprague-Dawley rats [1]; MK 801 0.3 mg/kg): inhibited the development of morphine tolerance
rats that died before the completion of the experiment (rats [2]; 0.3 mg/kg, 3 out of 6): 50%
grooming and weight of the remaining rats (rats [2]; MK 801 0.3 mg/kg): apparently poor grooming and weight loss
overall toxicity (rats [2]): severe cytotoxic effects

CN1CCN(CCCN2c3ccccc3Sc3ccc(C(F)(F)F)cc32)CC1 [TFP, trifluoperazine]
analgesic effect of morphine (tail-flick latency) on day 8 (rats [3]): showed a reliable analgesic effect of morphine
dose relation of the prevention of morphine tolerance (rats [3]): 100=50 nmol>25=12.5 nmol
prevention of the development of morphine tolerance (rats [3]): effectively prevent the development of morphine tolerance

Cl.NCCCCCCNS(=O)(=O)c1cccc2c(Cl)cccc12 [W-7, N-(6-aminohexyl)-5-chloro-1-naphthalenesulfonamide hydrochloride]
analgesic effect of morphine (tail-flick latency) on day 8 (rats [3]): showed a reliable analgesic effect of morphine
dose relation of the prevention of morphine tolerance (rats [3]): 100=50 nmol>25=12.5 nmol
prevention of the development of morphine tolerance (rats [3]): effectively prevent the development of morphine tolerance

CN1CC[C@]23CCCC[C@H]2[C@H]1Cc1ccc(O)cc13 [dextrorphan, (+)-3-hydroxy-N-methylmorphinan]
analgesic effect of the morphine on coadministration (Sprague-Dawley rats [1]; coadministration of dextrorphan with morphine): remains substantially unaffected
prevention of the development of morphine tolerance (tail-flick latency) (Sprague-Dawley rats [1]; dextrorphan 1.56, 3.13, 6.25, 12.5 mg/kg i.p. 30 min prior to each morphine 10 mg/kg s.c. twice daily, vs saline control, FIG. 1): potently prevented the development of morphine tolerance
incidence of jumping after naloxone 2 mg/kg s.c. (Sprague-Dawley rats [4]; dextrorphan 3.13 and 6.25 mg/kg, morphine 10 mg/kg twice daily for 9 days, vs MOR+SAL, FIG. 2): significantly reduced the incidence of jumping
rats that died due to drug administration (rats [2]): None
overall toxicity (rats [2]): nontoxic
grooming and weight (rats [2]): continued to appear well groomed and did not show weight loss

CN1CC[C@]23c4c5ccc(O)c4O[C@H]2[C@@H](O)C=C[C@H]3[C@H]1C5.O=S(=O)(O)O [morphine, morphine sulfate]
post-drug tail-flick latency scores (Sprague-Dawley rats [1]; measured 1 hour after drug administration, first 5 days of daily administration, morphine 10 mg/kg s.c. twice daily, baseline 4-5 seconds): ~10 s
response to morphine (tolerance), control group (Sprague-Dawley rats [1]; morphine 10 mg/kg s.c. twice daily + saline, at 7 and 9 days): marked reduction in response to morphine
response to morphine (tolerance), control group (rats [3]; once daily intrathecal morphine 10 μg + saline, Day 8, each tested time point): marked reduction in response to morphine
tolerance to the analgesic effect (tail-flick latencies vs baseline, day 1) (rats [3]; once daily intrathecal morphine sulfate 10 μg and saline for 7 consecutive days): developed tolerance to the analgesic effect or morphine

ganglioside GM1
inhibition of the development of morphine tolerance (Sprague-Dawley rats [1]; ganglioside GM1 60 mg/kg): inhibited the development of morphine tolerance to the degree equivalent to that induced by 0.3 mg/kg MK 801
tail flick latency versus saline-treated rats (Sprague-Dawley rats [1]; ganglioside GM1 10, 30, 60 mg/kg systemic, 1 hour before each morphine, days 5, 7, 9 and 10 of repeated morphine, FIG. 3): remained significantly longer than that of saline-treated rats
comparison of doses for prevention of morphine tolerance (Sprague-Dawley rats [1]; ganglioside GM1 systemic, 10, 30, 60 mg/kg, FIG. 3): 30 and 60 mg/kg were more effective at days 9 and 10 than 10 mg/kg
number of jumps after naloxone 2 mg/kg s.c. (Sprague-Dawley rats [4]; GM1 10, 30 and 60 mg/kg systemic, morphine 10 mg/kg twice daily for 9 days, vs MOR+SAL, FIG. 4): effective
most effective dose tested against naloxone-produced jumping (Sprague-Dawley rats [4]; GM1 systemic, doses 10, 30, 60 mg/kg): 60 mg/kg
prevention of morphine tolerance (maximal possible effects, % MPE) (rats [3]; intrathecal ganglioside GM1 30 min before each once daily intrathecal morphine 10 μg, Day 8, 15-240 minutes after morphine, vs saline, FIG. 5): effectively prevented the development of morphine tolerance
order of doses, maximal possible analgesia effects of morphine (rats [3]; intrathecal ganglioside GM1, Day 8): 160 nmol>80=40 nmol
rats that died due to drug administration (rats [2]): None
overall toxicity (rats [2]): nontoxic
grooming and weight (rats [2]): continued to appear well groomed and did not show weight loss
